Source: patent EP4745135A1 (Gluetacs Therapeutics (Shanghai) Co., Ltd., priority 2023, dated 2025)
One block for each compound: values may come before it.

Key:
[1] = molecular target: T1, CK1α (Homo sapiens, UniProt P48729+Q96SW2); assay: Western blot, degradation of substrate protein in hPBMCs; type: cell-based
T1 construct: effects of the compounds of the present disclosure on the expression of target proteins in cells; endogenous in cells; host or cells: human PBMCs (Milecell Biotechnologies)

[2] = molecular target: T2, IKZF1 (Homo sapiens, UniProt Q13422+Q96SW2); assay: as above; type: cell-based
T2 construct: effects of the compounds of the present disclosure on the expression of target proteins in cells; endogenous in cells; host or cells: human PBMCs (Milecell Biotechnologies)

[3] = molecular target: T3, IKZF2 (Homo sapiens, UniProt Q96SW2+Q9UKS7); assay: as above; type: cell-based
T3 construct: effects of the compounds of the present disclosure on the expression of target proteins in cells; endogenous in cells; host or cells: human PBMCs (Milecell Biotechnologies)

[4] = molecular target: T4, IKZF3 (Homo sapiens, UniProt Q96SW2+Q9UKT9); assay: as above; type: cell-based
T4 construct: effects of the compounds of the present disclosure on the expression of target proteins in cells; endogenous in cells; host or cells: human PBMCs (Milecell Biotechnologies)

[5] = molecular target: T5, WEE1 (Homo sapiens, UniProt P30291+Q96SW2); assay: as above; type: cell-based
T5 construct: effects of the compounds of the present disclosure on the expression of target proteins in cells; endogenous in cells; host or cells: human PBMCs (Milecell Biotechnologies)

[6] = system: GSPT1; assay: as above; type: cell-based, Human
[7] = molecular target: T6, human Cereblon WT GST-tagged protein (Homo sapiens, UniProt Q96SW2); assay: CRBN-binding affinity, HTRF (CEREBLON BINDING kit); settings: for inhibition at 0.5 µM: read-out: Inhibition Rate at 0.5 µM (%); for inhibition at 2 µM: read-out: Inhibition Rate at 2 µM (%)
T6 construct: purchased CISBIO 64BDCRBNPEH

[8] = system: Human breast cancer cell (MCF-7); assay: Tumor cell proliferation inhibition (CellTiter-Meiluncell luminescent cell viability assay); settings: MCF7, 96 h; for inhibition at 0.01 µM: read-out: Inhibition Rate at 10 nM (%); for inhibition at 0.5 µM: read-out: Inhibition Rate at 500 nM (%)
Procedure: The tumor cells used herein were cultured in a cell culture medium listed in table 2 at 37°C in an incubator with 5% CO2. Prior to experimentation, all cell lines used were correctly identified by STR profiling, and tested negative for mycoplasma contamination using a mycoplasma detection kit through routine screenings.
The IC50 values of the compounds of the present disclosure (including the compounds in Table 1 and Examples) were determined using the CellTiter-Meiluncell Luminescent Cell Viability Assay Kit from Dalian Meilun Biotech Co., Ltd. The detailed procedure is as follows: Tumor cells were seeded in 96-well cell culture plates at the densities specified in Table 3. On the following day, the test compounds of the present disclosure were subjected to serial dilution. The dilution can be performed according to one of the following two methods: • (1) The first dilution method: The test compounds of the present disclosure (including the compounds in Table 1 and Examples) were subjected to 5-fold serial dilutions starting from a highest concentration of 2000 µM, resulting in a total of 9 concentrations from high to low (2000, 400, 80, 16, 3.2, 0.64, 0.128, 0.0256, 0.00512 µM). Subsequently, 0.5 µL of the test compound dilution was transferred into the 96-well plate containing the cells, with each well containing 100 µL of cell culture medium. […] Into the 96-well plate, the diluted test compounds and corresponding detection reagents were added, resulting in final test compound concentrations of 500 nM and 10 nM, respectively. The experimental procedure is described below using the diluted 2 µM test compound as an example.
0.5 µL of the aforementioned diluted compound of the present disclosure (including the compounds in Table 1 and Examples) was added to the seeded cells in 100 µL of medium, yielding a final test compound concentration of 10 nM. After the cells were treated with the compounds of the present disclosure for a specified period, the cell viability assay reagent was added to the culture medium according to the kit's instructions to determine cell viability. […] All controls were treated using the same procedure as the compounds of the present disclosure. The growth inhibition curves for the compounds of the present disclosure were plotted using Prism GraphPad software, and the IC50 values were calculated therefrom.

[9] = system: Human multiple myeloma cell (MM.1S); assay: as above; settings: Homo sapiens, MM1.S, 96 h
[10] = Western blot, 24 hours of compound treatment, compounds tested at 50 nM and 500 nM (concentration for the table not stated)
[11] = 24 hours treatment, compounds at 50 nM and 500 nM (concentration behind the class not stated)

T4 sequence (Q9UKT9 whole entry): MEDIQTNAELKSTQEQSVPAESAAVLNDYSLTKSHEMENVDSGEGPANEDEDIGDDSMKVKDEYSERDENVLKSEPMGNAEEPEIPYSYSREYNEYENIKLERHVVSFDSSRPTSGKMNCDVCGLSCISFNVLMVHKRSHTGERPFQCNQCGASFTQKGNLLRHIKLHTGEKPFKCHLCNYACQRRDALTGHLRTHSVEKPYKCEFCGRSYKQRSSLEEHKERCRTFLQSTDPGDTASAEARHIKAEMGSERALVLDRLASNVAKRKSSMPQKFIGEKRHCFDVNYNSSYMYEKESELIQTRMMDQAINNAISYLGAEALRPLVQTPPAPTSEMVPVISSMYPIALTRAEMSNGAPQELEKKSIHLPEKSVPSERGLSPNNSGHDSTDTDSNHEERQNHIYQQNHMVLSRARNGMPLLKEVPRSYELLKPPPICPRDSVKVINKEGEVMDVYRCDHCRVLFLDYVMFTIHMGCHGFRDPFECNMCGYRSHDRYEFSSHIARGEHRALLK
T4 sequence (Q96SW2 whole entry): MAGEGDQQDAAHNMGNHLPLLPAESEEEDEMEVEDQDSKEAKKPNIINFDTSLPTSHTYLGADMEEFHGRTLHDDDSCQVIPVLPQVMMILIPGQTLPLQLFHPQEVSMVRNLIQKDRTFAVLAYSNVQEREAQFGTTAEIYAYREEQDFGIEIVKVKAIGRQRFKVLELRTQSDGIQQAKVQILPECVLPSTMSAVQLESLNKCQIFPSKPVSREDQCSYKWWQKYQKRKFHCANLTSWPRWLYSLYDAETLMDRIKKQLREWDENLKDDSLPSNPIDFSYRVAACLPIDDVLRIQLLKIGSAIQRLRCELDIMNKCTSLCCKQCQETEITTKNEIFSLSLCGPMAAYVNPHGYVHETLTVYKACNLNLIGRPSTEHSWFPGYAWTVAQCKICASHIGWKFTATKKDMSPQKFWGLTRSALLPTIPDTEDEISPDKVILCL
T4 sequence (Q16531 whole entry partner): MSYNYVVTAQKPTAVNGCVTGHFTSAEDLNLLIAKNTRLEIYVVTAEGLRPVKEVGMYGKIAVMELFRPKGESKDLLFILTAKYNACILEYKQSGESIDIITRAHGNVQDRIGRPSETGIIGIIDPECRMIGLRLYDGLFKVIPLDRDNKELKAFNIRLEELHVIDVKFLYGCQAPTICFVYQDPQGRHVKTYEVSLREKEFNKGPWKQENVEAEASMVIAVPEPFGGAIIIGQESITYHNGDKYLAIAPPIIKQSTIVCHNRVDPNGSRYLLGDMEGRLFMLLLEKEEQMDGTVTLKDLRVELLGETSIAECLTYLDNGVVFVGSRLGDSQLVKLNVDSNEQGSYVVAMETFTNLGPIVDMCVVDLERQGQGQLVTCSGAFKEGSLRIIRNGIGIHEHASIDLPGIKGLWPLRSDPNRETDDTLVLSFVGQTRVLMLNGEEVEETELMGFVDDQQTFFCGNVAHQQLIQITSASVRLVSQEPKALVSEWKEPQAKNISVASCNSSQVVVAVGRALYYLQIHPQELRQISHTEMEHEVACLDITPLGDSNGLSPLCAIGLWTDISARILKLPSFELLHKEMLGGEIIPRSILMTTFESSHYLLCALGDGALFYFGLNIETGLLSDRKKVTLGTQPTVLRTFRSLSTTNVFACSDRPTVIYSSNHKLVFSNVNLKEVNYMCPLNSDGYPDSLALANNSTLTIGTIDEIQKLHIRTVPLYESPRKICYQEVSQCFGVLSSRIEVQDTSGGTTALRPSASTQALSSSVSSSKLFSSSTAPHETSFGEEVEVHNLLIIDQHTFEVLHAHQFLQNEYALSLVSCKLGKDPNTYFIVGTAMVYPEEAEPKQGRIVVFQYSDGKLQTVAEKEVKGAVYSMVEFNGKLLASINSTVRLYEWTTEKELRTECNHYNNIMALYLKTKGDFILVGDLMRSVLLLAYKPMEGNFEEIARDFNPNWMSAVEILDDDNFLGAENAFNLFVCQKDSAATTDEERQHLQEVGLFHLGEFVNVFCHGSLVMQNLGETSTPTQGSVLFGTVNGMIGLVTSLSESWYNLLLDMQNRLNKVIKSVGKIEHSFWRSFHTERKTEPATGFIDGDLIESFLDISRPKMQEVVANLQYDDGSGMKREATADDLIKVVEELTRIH
T1 sequence (P48729 whole entry): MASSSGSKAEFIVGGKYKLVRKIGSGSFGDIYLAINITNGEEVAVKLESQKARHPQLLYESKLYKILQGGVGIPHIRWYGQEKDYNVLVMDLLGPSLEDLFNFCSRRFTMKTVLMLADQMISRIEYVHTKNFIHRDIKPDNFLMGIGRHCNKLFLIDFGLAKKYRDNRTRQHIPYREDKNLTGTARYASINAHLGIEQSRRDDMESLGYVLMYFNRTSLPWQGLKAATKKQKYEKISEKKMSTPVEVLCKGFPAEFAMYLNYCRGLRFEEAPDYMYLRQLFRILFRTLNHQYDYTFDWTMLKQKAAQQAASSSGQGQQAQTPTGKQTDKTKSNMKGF
T1 sequence (Q96SW2 whole entry): as the sequence (Q96SW2 whole entry) above
T1 sequence (Q16531 whole entry partner): as the sequence (Q16531 whole entry partner) above
T3 sequence (Q9UKS7 whole entry): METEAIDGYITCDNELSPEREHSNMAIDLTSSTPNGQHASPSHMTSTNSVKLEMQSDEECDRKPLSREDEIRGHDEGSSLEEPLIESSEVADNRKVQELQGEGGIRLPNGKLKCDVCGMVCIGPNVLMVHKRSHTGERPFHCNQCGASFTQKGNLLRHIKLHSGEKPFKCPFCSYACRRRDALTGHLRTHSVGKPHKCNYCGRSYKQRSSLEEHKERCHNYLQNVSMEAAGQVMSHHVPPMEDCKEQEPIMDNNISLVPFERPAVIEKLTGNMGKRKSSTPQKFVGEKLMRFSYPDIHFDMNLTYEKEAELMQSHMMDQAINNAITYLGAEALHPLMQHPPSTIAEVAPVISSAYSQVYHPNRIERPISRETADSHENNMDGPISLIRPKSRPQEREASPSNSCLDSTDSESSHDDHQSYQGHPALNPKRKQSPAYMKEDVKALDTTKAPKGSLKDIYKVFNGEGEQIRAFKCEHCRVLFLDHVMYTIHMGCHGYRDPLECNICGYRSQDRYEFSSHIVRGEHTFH
T3 sequence (Q96SW2 whole entry): as the sequence (Q96SW2 whole entry) above
T3 sequence (Q16531 whole entry partner): as the sequence (Q16531 whole entry partner) above
T5 sequence (P30291 whole entry): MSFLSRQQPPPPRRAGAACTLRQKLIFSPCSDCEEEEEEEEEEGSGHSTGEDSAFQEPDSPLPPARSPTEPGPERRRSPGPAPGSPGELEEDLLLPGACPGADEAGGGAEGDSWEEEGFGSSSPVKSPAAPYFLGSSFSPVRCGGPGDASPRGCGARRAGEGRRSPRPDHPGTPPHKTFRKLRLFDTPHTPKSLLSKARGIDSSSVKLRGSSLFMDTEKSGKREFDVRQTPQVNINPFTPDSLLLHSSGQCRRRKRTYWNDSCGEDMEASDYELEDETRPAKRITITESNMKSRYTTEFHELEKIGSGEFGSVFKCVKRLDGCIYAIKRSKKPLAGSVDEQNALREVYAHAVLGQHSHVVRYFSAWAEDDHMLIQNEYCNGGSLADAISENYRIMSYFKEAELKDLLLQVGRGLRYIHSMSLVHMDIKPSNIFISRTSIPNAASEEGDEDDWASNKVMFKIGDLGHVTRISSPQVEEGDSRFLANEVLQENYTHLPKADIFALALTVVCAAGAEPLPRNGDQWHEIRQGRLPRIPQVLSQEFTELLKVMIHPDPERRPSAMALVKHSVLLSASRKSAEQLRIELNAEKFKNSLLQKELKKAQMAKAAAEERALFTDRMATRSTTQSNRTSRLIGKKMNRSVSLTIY
T5 sequence (Q96SW2 whole entry): as the sequence (Q96SW2 whole entry) above
T5 sequence (Q16531 whole entry partner): as the sequence (Q16531 whole entry partner) above
T2 sequence (Q13422 whole entry): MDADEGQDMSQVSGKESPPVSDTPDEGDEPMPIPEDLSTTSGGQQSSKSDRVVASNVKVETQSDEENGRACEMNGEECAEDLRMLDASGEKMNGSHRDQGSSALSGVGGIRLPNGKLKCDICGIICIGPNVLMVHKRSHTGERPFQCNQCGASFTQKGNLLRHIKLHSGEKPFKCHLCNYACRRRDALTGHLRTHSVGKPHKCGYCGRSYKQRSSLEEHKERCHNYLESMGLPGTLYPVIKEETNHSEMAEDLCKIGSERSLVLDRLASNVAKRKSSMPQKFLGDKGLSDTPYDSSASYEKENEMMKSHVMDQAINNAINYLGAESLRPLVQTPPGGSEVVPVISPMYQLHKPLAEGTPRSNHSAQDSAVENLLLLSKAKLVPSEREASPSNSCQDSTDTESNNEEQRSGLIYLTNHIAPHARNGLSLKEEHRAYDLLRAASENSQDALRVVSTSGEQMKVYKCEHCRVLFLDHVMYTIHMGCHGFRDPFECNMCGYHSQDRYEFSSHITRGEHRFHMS
T2 sequence (Q96SW2 whole entry): as the sequence (Q96SW2 whole entry) above
T2 sequence (Q16531 whole entry partner): as the sequence (Q16531 whole entry partner) above
T6 sequence (Q96SW2 whole entry): as the sequence (Q96SW2 whole entry) above

SMILES: O=C1CCC(N2Cc3c(CN4CCC(n5c(=O)[nH]c6cc(F)ccc65)CC4)cccc3C2=S)C(=O)N1 (stereo not shown) [GT-08843, 3-(4-((4-(5-fluoro-2-oxo-2,3-dihydro-1H-benzo[d]imidazol-1-yl)piperidin-1-yl)methyl)-1-thioxoisoindolin-2-yl)piperidine-2,6-dione]
CK1α substrate protein remaining % [1, 10]: B (80%< substrate protein remaining %≤ 100%)
IKZF 1 substrate protein remaining % [2, 10]: B (80%< substrate protein remaining %≤ 100%)
IKZF2 substrate protein remaining % [3, 10]: B (80%< substrate protein remaining %≤ 100%)
IKZF3 substrate protein remaining % [4, 10]: B (80%< substrate protein remaining %≤ 100%)
Wee1 substrate protein remaining % [5, 10]: A (0% ≤ substrate protein remaining % ≤ 80%)
GSPT1 substrate protein remaining % [6, 10]: B (80%< substrate protein remaining %≤ 100%)
inhibition at 0.5 µM [7]: 60 to 80%
inhibition at 2 µM [7]: 80 to 100%
inhibition at 0.01 µM [8]: 60 to 70%
inhibition at 0.5 µM [8]: 60 to 70%

SMILES: Cc1nc(N2CCN(Cc3cccc4c3CN(C3CCC(=O)NC3=O)C4=S)CC2)c2c3c(sc2n1)CCCC3 (stereo not shown) [GT-08923, 3-(4-((4-(2-methyl-5,6,7,8-tetrahydrobenzo[4,5]thieno[2,3-d]pyrimidin-4-yl)piperazin-1-yl)methyl)-1-thioxoisoindolin-2-yl)piperidine-2,6-dione]
CK1α substrate protein remaining % [1, 11]: B (80%< substrate protein remaining %≤ 100%)
IKZF 1 substrate protein remaining % [2, 11]: B (80%< substrate protein remaining %≤ 100%)
IKZF2 substrate protein remaining % [3, 11]: B (80%< substrate protein remaining %≤ 100%)
IKZF3 substrate protein remaining % [4, 11]: B (80%< substrate protein remaining %≤ 100%)
Wee1 substrate protein remaining % [5, 11]: A (0% ≤ substrate protein remaining % ≤ 80%)
GSPT1 substrate protein remaining % [6, 11]: B (80%< substrate protein remaining %≤ 100%)
inhibition at 0.5 µM [7]: 30 to 40%
inhibition at 2 µM [7]: 80 to 100%
inhibition at 0.01 µM [8]: 70 to 80%
inhibition at 0.5 µM [8]: 70 to 80%

SMILES: O=C1CCC(N2Cc3c(CN4CCN(c5ncnc6sc7c(c56)CCC7)CC4)cccc3C2=S)C(=O)N1 (stereo not shown) [GT-08925, 3-(4-((4-(6,7-dihydro-5H-cyclopenta[4,5]thieno[2,3-d]pyrimidin-4-yl)piperazin-1-yl)methyl)-1-thioxoisoindolin-2-yl)piperidine-2,6-dione]
CK1α substrate protein remaining % [1, 11]: B (80%< substrate protein remaining %≤ 100%)
IKZF 1 substrate protein remaining % [2, 11]: B (80%< substrate protein remaining %≤ 100%)
IKZF2 substrate protein remaining % [3, 11]: A (0% ≤ substrate protein remaining % ≤ 80%)
IKZF3 substrate protein remaining % [4, 11]: A (0% ≤ substrate protein remaining % ≤ 80%)
Wee1 substrate protein remaining % [5, 11]: A (0% ≤ substrate protein remaining % ≤ 80%)
GSPT1 substrate protein remaining % [6, 11]: B (80%< substrate protein remaining %≤ 100%)
inhibition at 0.5 µM [7]: 60 to 80%
inhibition at 2 µM [7]: 80 to 100%
inhibition at 0.01 µM [8]: 60 to 70%
inhibition at 0.5 µM [8]: 60 to 70%

SMILES: Cc1nc(C2CCN(Cc3cccc4c3CN(C3CCC(=O)NC3=O)C4=S)CC2)c2c(-c3ccccc3)csc2n1 (stereo not shown) [GT-08931, 3-(4-((4-(2-methyl-5-phenylthieno[2,3-d]pyrimidin-4-yl)piperidin-1-yl)methyl)-1-thioxoisoindolin-2-yl)piperidine-2,6-dione]
inhibition at 0.5 µM [7]: 40 to 53%
inhibition at 2 µM [7]: 80 to 100%
inhibition at 0.01 µM [8]: 30 to 40%
inhibition at 0.5 µM [8]: 60 to 70%

SMILES: O=C1CCC(N2Cc3c(CN4CCC(c5ncnc6sc7c(c56)CCC7)CC4)cccc3C2=S)C(=O)N1 (stereo not shown) [GT-08934, 3-(4-((4-(6,7-dihydro-5H-cyclopenta[4,5]thieno[2,3-d]pyrimidin-4-yl)piperidin-1-yl)methyl)-1-thioxoisoindolin-2-yl)piperidine-2,6-dione]
CK1α substrate protein remaining % [1, 11]: B (80%< substrate protein remaining %≤ 100%)
IKZF 1 substrate protein remaining % [2, 11]: A (0% ≤ substrate protein remaining % ≤ 80%)
IKZF2 substrate protein remaining % [3, 11]: B (80%< substrate protein remaining %≤ 100%)
IKZF3 substrate protein remaining % [4, 11]: A (0% ≤ substrate protein remaining % ≤ 80%)
Wee1 substrate protein remaining % [5, 11]: A (0% ≤ substrate protein remaining % ≤ 80%)
GSPT1 substrate protein remaining % [6, 11]: A (0% ≤ substrate protein remaining % ≤ 80%)
inhibition at 0.5 µM [7]: 40 to 53%
inhibition at 2 µM [7]: 53 to 60%
inhibition at 0.01 µM [8]: 30 to 40%
inhibition at 0.5 µM [8]: 40 to 50%

SMILES: O=C1CCC(N2Cc3c(CN4CC=C(c5ncnc6sccc56)CC4)cccc3C2=S)C(=O)N1 (stereo not shown) [GT-08937, 3-(4-((4-(thieno[2,3-d]pyrimidin-4-yl)-3,6-dihydropyridin-1(2H)-yl)methyl)-1-thioxoisoindolin-2-yl)piperidine-2,6-dione]
CK1α substrate protein remaining % [1, 11]: B (80%< substrate protein remaining %≤ 100%)
IKZF 1 substrate protein remaining % [2, 11]: B (80%< substrate protein remaining %≤ 100%)
IKZF2 substrate protein remaining % [3, 11]: B (80%< substrate protein remaining %≤ 100%)
IKZF3 substrate protein remaining % [4, 11]: B (80%< substrate protein remaining %≤ 100%)
Wee1 substrate protein remaining % [5, 11]: A (0% ≤ substrate protein remaining % ≤ 80%)
GSPT1 substrate protein remaining % [6, 11]: A (0% ≤ substrate protein remaining % ≤ 80%)
inhibition at 0.5 µM [7]: 60 to 80%
inhibition at 2 µM [7]: 80 to 100%
inhibition at 0.01 µM [8]: 30 to 40%
inhibition at 0.5 µM [8]: 40 to 50%

SMILES: O=C1CCC(N2Cc3cc(CN4CCN(c5nc(N6CCOCC6)nc6c5SCC6)CC4)ccc3C2=S)C(=O)N1 (stereo not shown) [GT-09329, 3-(5-((4-(2-morpholino-6,7-dihydrothieno[3,2-d]pyrimidin-4-yl)piperazin-1-yl)methyl)-1-thioxoisoindolin-2-yl)piperidine-2,6-dione]
CK1α substrate protein remaining % [1, 11]: B (80%< substrate protein remaining %≤ 100%)
IKZF 1 substrate protein remaining % [2, 11]: B (80%< substrate protein remaining %≤ 100%)
IKZF2 substrate protein remaining % [3, 11]: A (0% ≤ substrate protein remaining % ≤ 80%)
IKZF3 substrate protein remaining % [4, 11]: B (80%< substrate protein remaining %≤ 100%)
Wee1 substrate protein remaining % [5, 11]: B (80%< substrate protein remaining %≤ 100%)
GSPT1 substrate protein remaining % [6, 11]: A (0% ≤ substrate protein remaining % ≤ 80%)
inhibition at 0.5 µM [7]: 60 to 80%
inhibition at 2 µM [7]: 80 to 100%
inhibition at 0.01 µM [8]: 20 to 30%
inhibition at 0.5 µM [8]: 40 to 50%

The next lines start with results.

inhibition at 0.5 µM [7]: 60 to 80%
inhibition at 2 µM [7]: 80 to 100%
SMILES: O=C1CCC(N2Cc3c(CN4CC=C(c5n[nH]c6cc(F)ccc56)CC4)cccc3C2=S)C(=O)N1 (stereo not shown) [GT-08850, 3-(4-((4-(6-fluoro-1H-indazol-3-yl)-3,6-dihydropyridin-1(2H)-yl)methyl)-1-thioxoisoindolin-2-yl)piperidine-2,6-dione]
CK1α substrate protein remaining % [1, 10]: B (80%< substrate protein remaining %≤ 100%)
IKZF 1 substrate protein remaining % [2, 10]: B (80%< substrate protein remaining %≤ 100%)
IKZF2 substrate protein remaining % [3, 10]: B (80%< substrate protein remaining %≤ 100%)
IKZF3 substrate protein remaining % [4, 10]: B (80%< substrate protein remaining %≤ 100%)
Wee1 substrate protein remaining % [5, 10]: B (80%< substrate protein remaining %≤ 100%)
GSPT1 substrate protein remaining % [6, 10]: A (0% ≤ substrate protein remaining % ≤ 80%)
inhibition at 0.01 µM [8]: 40 to 50%
inhibition at 0.5 µM [8]: 50 to 60%

inhibition at 0.5 µM [7]: 40 to 53%
inhibition at 2 µM [7]: 80 to 100%
SMILES: O=C1CCC(N2Cc3c(CN4CC(n5cnc6cc(F)ccc65)C4)cccc3C2=S)C(=O)N1 (stereo not shown) [GT-08861, 3-(4-((3-(5-fluoro-1H-benzo[d]imidazol-1-yl)azetidin-1-yl)methyl)-1-thioxoisoindolin-2-yl)piperidine-2,6-dione]
CK1α substrate protein remaining % [1, 11]: B (80%< substrate protein remaining %≤ 100%)
IKZF 1 substrate protein remaining % [2, 11]: B (80%< substrate protein remaining %≤ 100%)
IKZF2 substrate protein remaining % [3, 11]: B (80%< substrate protein remaining %≤ 100%)
IKZF3 substrate protein remaining % [4, 11]: B (80%< substrate protein remaining %≤ 100%)
Wee1 substrate protein remaining % [5, 11]: A (0% ≤ substrate protein remaining % ≤ 80%)
GSPT1 substrate protein remaining % [6, 11]: B (80%< substrate protein remaining %≤ 100%)
inhibition at 0.01 µM [8]: 30 to 40%
inhibition at 0.5 µM [8]: 40 to 50%

inhibition at 0.5 µM [7]: 40 to 53%
inhibition at 2 µM [7]: 80 to 100%
SMILES: O=C1CCC(N2Cc3c(CN4CCN(c5ncnc6scc(-c7ccccc7)c56)CC4)cccc3C2=S)C(=O)N1 (stereo not shown) [GT-08920, 3-(4-((4-(5-phenylthieno[2,3-d]pyrimidin-4-yl)piperazin-1-yl)methyl)-1-thioxoisoindolin-2-yl)piperidine-2,6-dione]
inhibition at 0.01 µM ([9]; read-out: Inhibition Rate at 10 nM (%)): 30 to 40%
inhibition at 0.5 µM ([9]; read-out: Inhibition Rate at 500 nM (%)): 40 to 50%
inhibition at 0.01 µM [8]: 50 to 60%
inhibition at 0.5 µM [8]: 30 to 40%

inhibition at 0.5 µM [7]: 60 to 80%
inhibition at 2 µM [7]: 80 to 100%
SMILES: O=C1CCC(N2Cc3c(CN4CCC(c5ncnc6sccc56)CC4)cccc3C2=S)C(=O)N1 (stereo not shown) [GT-08928, 3-(4-((4-(thieno[2,3-d]pyrimidin-4-yl)piperidin-1-yl)methyl)-1-thioxoisoindolin-2-yl)piperidine-2,6-dione]
CK1α substrate protein remaining % [1, 11]: B (80%< substrate protein remaining %≤ 100%)
IKZF 1 substrate protein remaining % [2, 11]: B (80%< substrate protein remaining %≤ 100%)
IKZF2 substrate protein remaining % [3, 11]: B (80%< substrate protein remaining %≤ 100%)
IKZF3 substrate protein remaining % [4, 11]: B (80%< substrate protein remaining %≤ 100%)
Wee1 substrate protein remaining % [5, 11]: A (0% ≤ substrate protein remaining % ≤ 80%)
GSPT1 substrate protein remaining % [6, 11]: B (80%< substrate protein remaining %≤ 100%)
inhibition at 0.01 µM [8]: 40 to 50%
inhibition at 0.5 µM [8]: 60 to 70%
